“Also recorded” adds a separate entry of the source.

One data set relates to BRD4 at super-enhancers. In words: Super-enhancers versus typical enhancers, gene expression and BRD4 genomic occupancy. In kind it is cell-based.
The test system of data set [1] is MED1, BRD4, and POL2 condensates in HCT116 colon cancer cell lines. Put plainly: Small molecule effects on transcriptional condensates in GFP-tagged HCT116 cells. In kind it is cell-based, human. The conditions noted are these: for effect on transcriptional condensates: MED1-GFP, BRD4-GFP, POL2-GFP HCT116. An excerpt:
HCT116 colon cancer cell lines endogenously tagged with MED1-GFP, BRD4-GFP, POL2-GFP, or HP1a-GFP (Mock), all forming condensates in the nucleus.

The subject of data set [2] is platinated DNA at MYC locus in HCT116 cells. In words: Immunofluorescence with MYC DNA FISH after JQ1 then cisplatin. In kind it is cell-based, human. The settings on record: 1 μM JQ1 24 hours, then 50 μM cisplatin 6 hours.
Data set [3] can be described thus: Droplet formation assay of small molecule alone without any protein. It counts as physicochemical. The conditions noted are these: without any protein added. As for the experimental part: Recombinant BFP, GFP, or mCherry fusion proteins were concentrated and desalted to an appropriate protein concentration and 125 mM NaCl using Amicon Ultra centrifugal filters (30K MWCO, Millipore). […] […] The protein solution was immediately loaded onto glass bottom 384 well plate (Cellvis P384-1.5H-N) and imaged with an Andor confocal microscope with a 150× objective. Unless indicated, images presented are of droplets settled on the glass coverslip.

In data set [4] the test system is MED1 genomic occupancy in HCT116 cells. Put plainly: MED1 ChIP-seq in HCT116 cells. It counts as cell-based, human. The conditions noted are these: JQ1 for 24 hours.
For the next data set, the target named is T1, HP1α (Homo sapiens, UniProt P45973).
T1 construct: HP1α—full length, amino acids 1-191; 6xHis (N); made in house; host or cells: LOBSTR cells (E. coli)
T1 sequence (P45973 whole entry, the tested form may be a part): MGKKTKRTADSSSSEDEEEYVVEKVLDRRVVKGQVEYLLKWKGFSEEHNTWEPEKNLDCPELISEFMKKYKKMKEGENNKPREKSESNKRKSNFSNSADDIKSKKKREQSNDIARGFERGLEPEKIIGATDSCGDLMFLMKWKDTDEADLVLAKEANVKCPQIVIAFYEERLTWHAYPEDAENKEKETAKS
Put plainly: In vitro droplet assay, small molecule partitioning into HP1α condensates. In kind it is binding. As for the experimental part: (§1) Recombinant BFP, GFP, or mCherry fusion proteins were concentrated and desalted to an appropriate protein concentration and 125 mM NaCl using Amicon Ultra centrifugal filters (30K MWCO, Millipore). Recombinant protein was added too. […] The protein solution was immediately loaded onto glass bottom 384 well plate (Cellvis P384-1.5H-N) and imaged with an Andor confocal microscope with a 150× objective. Unless indicated, images presented are of droplets settled on the glass coverslip.
(§2) Drug and small molecule concentrations used in the droplet experiments are as follows:
(§3) To analyze in vitro droplet experiments, custom Python scripts using the scikit-image package were written to identify droplets and characterize their size, shape and intensity. […] After segmentation, mean intensity for each droplet was calculated while excluding pixels near the phase interface, and background-corrected by subtracting intensity of dark images of droplet formation buffer only. Droplets identified in the channel of the fluorescent protein from ten independent fields of view were quantified for each experiment. The maximum intensity of signal within the droplets was calculated for each channel, the maximum intensity in the drug channel was termed “maximum drug intensity”. […]

For a further data set, the target named is T2, MED1 (Homo sapiens, UniProt Q15648).
T2 construct: MED1—amino acids 600-1581; 6xHis (N); made in house; host or cells: LOBSTR cells (E. coli)
T2 sequence (Q15648 600-1581): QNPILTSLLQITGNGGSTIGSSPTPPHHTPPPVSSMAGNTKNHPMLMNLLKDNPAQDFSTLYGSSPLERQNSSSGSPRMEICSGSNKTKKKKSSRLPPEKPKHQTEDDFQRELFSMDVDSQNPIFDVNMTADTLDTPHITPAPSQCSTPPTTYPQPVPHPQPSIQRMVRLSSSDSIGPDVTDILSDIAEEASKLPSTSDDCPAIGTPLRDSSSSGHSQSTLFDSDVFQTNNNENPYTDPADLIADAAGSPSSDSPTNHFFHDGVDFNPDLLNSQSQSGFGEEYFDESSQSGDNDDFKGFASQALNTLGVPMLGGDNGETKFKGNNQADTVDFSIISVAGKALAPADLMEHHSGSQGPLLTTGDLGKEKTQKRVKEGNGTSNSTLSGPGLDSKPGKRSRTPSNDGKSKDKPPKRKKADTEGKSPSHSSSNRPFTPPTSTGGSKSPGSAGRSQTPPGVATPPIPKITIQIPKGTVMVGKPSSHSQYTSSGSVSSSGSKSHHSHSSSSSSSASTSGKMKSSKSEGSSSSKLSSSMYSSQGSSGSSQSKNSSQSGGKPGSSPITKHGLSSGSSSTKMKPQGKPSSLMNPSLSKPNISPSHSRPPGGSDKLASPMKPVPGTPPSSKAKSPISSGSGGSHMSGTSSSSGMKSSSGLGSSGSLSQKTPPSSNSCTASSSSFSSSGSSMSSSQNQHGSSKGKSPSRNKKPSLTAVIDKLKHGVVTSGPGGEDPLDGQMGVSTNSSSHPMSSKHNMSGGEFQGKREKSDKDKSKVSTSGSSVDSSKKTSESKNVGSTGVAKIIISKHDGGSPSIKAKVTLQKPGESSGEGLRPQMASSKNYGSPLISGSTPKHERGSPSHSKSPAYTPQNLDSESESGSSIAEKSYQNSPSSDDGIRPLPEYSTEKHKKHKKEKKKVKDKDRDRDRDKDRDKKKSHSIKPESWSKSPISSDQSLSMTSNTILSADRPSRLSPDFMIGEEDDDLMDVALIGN
In words: In vitro droplet assay, small molecule partitioning into MED1 condensates. It counts as binding. The settings on record: for partitioning / incorporation into MED1 droplets: confocal fluorescence, Example 2: 125 mM NaCl, 10% PEG, 10 μM protein, fluorescent or fluorescently labeled drug. As for the experimental part:
as §1, §2
To analyze in vitro droplet experiments, custom Python scripts using the scikit-image package were written to identify droplets and characterize their size, shape and intensity. Droplets were segmented from average images of captured channels on various criteria: (1) an intensity threshold that was three s.d. above the mean of the image; (2) size thresholds (20 pixel minimum droplet size); and (3) a minimum circularity (circularity=4π·areaperimeter2) (circularity=4π·areaperimeter2) of 0.8 (1 being a perfect circle). After segmentation, mean intensity for each droplet was calculated while excluding pixels near the phase interface, and background-corrected by subtracting intensity of dark images of droplet formation buffer only. Droplets identified in the channel of the fluorescent protein from ten independent fields of view were quantified for each experiment. The maximum intensity of signal within the droplets was calculated for each channel, the maximum intensity in the drug channel was termed “maximum drug intensity”. To obtain the intensity of drug or dye alone in the diffuse state (termed “diffuse drug intensity”), the compound was added to droplet formation buffer at same concentration used in the droplet assay. This was then imaged on a confocal fluorescent microscope. The resulting image was processed in FIJI to obtain the fluorescent intensity of the field. To obtain the fluorescent intensity of protein droplets that bleed through in the drug channel (termed “background intensity”) protein droplets were imaged in the fluorescent channel in which the drug fluoresces and processed as above to obtain the average maximum intensity within the droplet across 10 images. The enrichment ratio was obtained by the following formula [(maximum drug intensity)−(background intensity)]/(diffuse drug intensity). The box plots show the distributions of all droplets. Each dot represents an individual droplet.

Data set [5] deals with MED1 condensate at the LAC array in U2OS cells. In words: LAC binding assay, FLTX1 enrichment at tethered MED1 or HP1α. In kind it is cell-based, human. The conditions noted are these: ESR1 not expressed, 1 uM FLTX1. As for the experimental part:
Constructs were assembled by NEB HIFI cloning in pSV2 mammalian expression vector containing an SV40 promoter driving expression of a mCherry-LacI fusion protein. The intrinsically disordered region of MED1, HP1α, or the activation domain of ESR1 was fused by the c-terminus to this recombinant protein, joined by the linker sequence […] (SEQ ID NO: 16). For experiments comparing FLTX1 enrichment at the array, U20S-Lac cells were plated onto chambered coverglass (1.5 Borosilicate Glass, Nunc Lab-Tek, 155409) and transfected with either MED1 IDR or HP1α constructs with lipofectamine 3000 (Thermofisher L3000015). After 24 hours, cells were treated with either 1 uM FLTX1 or vehicle (DMF). […]
For analysis of Lac array data comparing MED1 or HP1α tethered, a region of interest was called using the signal in the Lac array (561 channel). The average fluorescent signal for FLTX1 (488 channel) was then measured in the region of interest and divided by the average fluorescence in the region of interest at the Lac array. […] For analysis of Lac array data for MED1 overexpression, enrichment was calculated by dividing the average fluorescent signal for MED1 immunofluorescence at the region of interest, defined by the ER tethered at the lac array, by MED1 immunofluorescence signal at a random nuclear region.

The target in a further data set is T3, FIB1 (Homo sapiens, UniProt P22087).
T3 construct: FIB1—full length, amino acids 1-321; 6xHis (N); made in house; host or cells: LOBSTR cells (E. coli)
T3 sequence (P22087 whole entry, the tested form may be a part): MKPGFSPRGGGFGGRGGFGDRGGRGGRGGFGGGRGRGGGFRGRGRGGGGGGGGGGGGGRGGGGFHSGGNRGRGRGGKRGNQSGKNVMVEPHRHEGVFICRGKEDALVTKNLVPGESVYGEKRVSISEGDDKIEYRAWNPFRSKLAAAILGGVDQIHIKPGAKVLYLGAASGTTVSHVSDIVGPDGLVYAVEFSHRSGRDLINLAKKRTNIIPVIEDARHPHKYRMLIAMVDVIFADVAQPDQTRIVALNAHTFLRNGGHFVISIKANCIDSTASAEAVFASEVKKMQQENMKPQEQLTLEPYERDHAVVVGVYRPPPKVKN
In words: In vitro droplet assay, small molecule partitioning into FIB1 condensates. In kind it is binding. The settings on record: 125 mM NaCl, 10% PEG, 10 μM protein. As for the experimental part: as §1, §2, §3

Another data set has as its target T4, NPM1 (Homo sapiens, UniProt P06748).
T4 construct: NPM1—full length, amino acids 1-294; 6xHis (N); made in house; host or cells: LOBSTR cells (E. coli)
In words: In vitro droplet assay, small molecule partitioning into NPM1 condensates. In kind it is binding. The settings on record: 125 mM NaCl, 10% PEG, 10 μM protein. As for the experimental part: as §1, §2, §3

Another data set has as its system nucleolus. The settings on record: references (35, 36); cited from earlier work.
The target in the next data set is T5, MED1 condensates (Homo sapiens, UniProt Q15648).
T5 construct: MED1—amino acids 600-1581; 6xHis (N); made in house; host or cells: LOBSTR cells (E. coli)
T5 sequence (Q15648 600-1581): as the sequence (Q15648 600-1581) above
In words: Determination of partitioning by spectrophotometry and quantitative phase microscopy. It counts as binding. The settings on record: uv spectroscopy of drug remaining in solution plus condensate volume estimate. An excerpt: Here, an expression is derived briefly for the partition coefficient of a client molecule into a condensed phase in terms of quantities that are readily measurable experimentally. A sample composed of two coexisting phases is considered, named dilute and condensed, with volume fractions ϕdilute and […]. If a client molecule (e.g. a drug) is also present in the sample at an average concentration of ctotal, then mass conservation requires that
the ratio is estimated ctotal/cdilute from fluorescence spectroscopy measurements, as described in a subsequent section, while ϕcond, it is inferred from the lever rule (M. Rubinstein, R. H. Colby, Polymer Phyics (Oxford University Press, 2003) as follows: denoting the concentration of scaffold protein (e.g. MED1) by s, mass conservation gives stotal=sdiluteϕdilute+scondϕcond, in analogy with Eq. 1. Again using the requirement that the volume fractions of coexisting phases sum to 1, this can be rearranged to yield
where stotal and sdilute are measured spectrophotometrically from optical absorbance at 280 nm, and scond is measured from quantitative phase microscopy, using a coherence-controlled holographic microscope (Q-Phase, Telight (formerly TESCAN), Bmo, CZ) equipped with 40× dry objectives (NA=0.90). […]
where A is the measured absorbance (in Absorbance Units (AU)), I0 is the intensity of the incident light at a given wavelength, I is the transmitted intensity, L the path length through the sample, and c the concentration of the absorbing species. […] The partitioned drug was measured by using spin down assay. […] The supernatant was collected and measured the concentrations of the drug. The partitioned drug was calculated by subtracting from the total known concentration of drug added.
Quantitative phase measurements were performed using a coherence-controlled holographic microscope (Q-Phase, Telight (formerly TESCAN), Brno, CZ) equipped with 40× dry objectives (NA=0.90) as follows. […]
Q-PHASE software was used to construct compensated phase images from acquired holograms, which were subsequently analyzed in MATLAB using custom code. […]

T4 sequence (P06748 whole entry, the tested form may be a part): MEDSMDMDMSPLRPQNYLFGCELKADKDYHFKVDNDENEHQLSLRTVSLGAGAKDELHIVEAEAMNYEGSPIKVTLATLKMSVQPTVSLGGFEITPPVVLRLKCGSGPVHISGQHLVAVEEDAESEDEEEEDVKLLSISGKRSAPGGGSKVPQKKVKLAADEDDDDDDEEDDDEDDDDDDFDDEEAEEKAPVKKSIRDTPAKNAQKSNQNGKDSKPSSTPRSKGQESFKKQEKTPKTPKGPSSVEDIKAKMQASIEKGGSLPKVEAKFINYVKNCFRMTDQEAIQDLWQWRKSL

Regarding `Cc1sc2c(c1C)C(c1ccc(Cl)cc1)=N[C@@H](CC(=O)OC(C)(C)C)c1nnc(C)n1-2` [JQ1, (S)-tert-butyl 2-(4-(4-chlorophenyl)-2,3,9-trimethyl-6H-thieno[3,2-ƒ][1,2,4]triazolo[4,3-a][1,4]diazepin-6-yl)acetate], in the data set on BRD4 at super-enhancers, the “BRD4 genomic occupancy, super-enhancers versus typical enhancers” value is given as “reduces BRD4 genomic occupancy in super-enhancers to a greater extent than typical enhancers” and the “sensitivity of gene expression by super-enhancers versus typical enhancers” value was “more sensitive”. Besides, the “effect on transcriptional condensates” value in data set [1] is on record as “reduces the number of, or eliminates”. The “effect on transcriptional condensates, long exposure” value in data set [1] (long exposure (e.g., 24 hours)) was “genomic release and consolidation of condensates”. The “MED1 condensates after JQ1” value in data set [1] (mEGFP-MED1 tagged HCT116 cells, JQ1 for 24 hours) is reported as “loss of MED1 condensates; also recorded: diminution of MED1 condensates”. Moreover, in data set [1] (short exposure (e.g., 5 minutes)), the “effect on transcriptional condensates, short exposure” value is “eviction of some condensate components”. Besides, in data set [2], the “platinated DNA at the MYC locus after JQ1 treatment” value was “concomitant reduction in platinated DNA at the MYC oncogene; also recorded: loss of signal for platinated DNA”. Besides, the “droplet formation of small molecule alone” value (“droplet formation” below) in data set [3] was “diffuse fluorescent signal”. For the same compound, the “MED1 ChIP-Seq at MYC after JQ1” value in [4] is “loss of MED1 loading”.

Consider `CC/C(=C(\c1ccccc1)c1ccc(OCCN(C)c2ccc([N+](=O)[O-])c3nonc23)cc1)c1ccccc1` [FLTX1], for which the “droplet formation” value in data set [3] was “diffuse fluorescent signal”. The “partitioning / incorporation into HP1α droplets” value at HP1α is given as “does not incorporate”. Also, the “drug concentration in larger MED1 condensates” value on MED1 (20 μM (High) vs 5 μM (Low) MED1, 100 μM FLTX1) is on record as “lower concentrations of the drug”. Also, on MED1, the “partitioning / incorporation into MED1 droplets” value is given as “concentrated preferentially in MED1 droplets; also recorded: incorporated into MED1 containing condensates; also recorded: incorporates into MED1 droplets”. In data set [5], the “FLTX1 enrichment at MED1 condensate tethered to the LAC array” value is given as “concentrated FLTX1 at the site of the condensate; also recorded: concentrates in MED1 condensates in cells”.

Regarding `O=C1c2c(O)ccc(O)c2C(=O)c2c(NCCNCCO)ccc(NCCNCCO)c21` [Mitoxantrone], the “partitioning into FIB1 condensates” value at FIB1 is reported as “concentrated”. Also, in data set [1], the “effect on transcriptional condensates” value is given as “global dissolution of condensates; also recorded: cause condensate dissolution”. For the same compound, on NPM1, the “partitioning into NPM1 condensates” value is “concentrated”. For the same compound, in data set [3], the “droplet formation” value is on record as “diffuse fluorescent signal”. Also, the “partitioning / incorporation into MED1 droplets” value on MED1 was “concentrated; also recorded: immediately incorporate into MED1 droplets”. Also, the subcellular concentration result with nucleolus was “concentrate in the nucleolus”. Further, at MED1 condensates, the “partition ratio in MED1 condensates” value is given as “approximately 100 fold”.

Source of the values: US20220390432A1, “METHODS OF CHARACTERIZING AND UTILIZING AGENT-CONDENSATE INTERACTIONS” (Whitehead Institute for Biomedical Research, priority 2019, published 2022).
